Laboratory results as given in patent US8349883B2, “Hydroxamate-based inhibitors of deacetylases B” (Novartis AG, priority 2008, dated 2013).

Key:
HDAC-1 = target: T1, HDAC-1 (Homo sapiens, UniProt Q13547); experiment: HDAC inhibition assay (purified GST-HDAC protein); format: biochemical
T1 construct: made in house; host or cells: Sf9 or Sf21 insect cells (baculovirus, donor vector pFB-GSTX3)
Description: The baculovirus donor vector pFB-GSTX3 was used to generate a recombinant baculovirus that can express the HDAC polypeptide. Transfer vectors containing the HDAC coding region were transfected into the DH10Bac cell line (GIBCO) and plated on selective agar plates. Colonies without insertion of the fusion sequence into the viral genome (carried by the bacteria) were blue. Single, white colonies were picked and viral DNAs (bacmid) were isolated from the bacteria by standard plasmid purification procedures. Sf9 cells or Sf21 (American Type Culture Collection) cells were then transfected in […] flasks with the viral DNA using Cellfectin reagent.
Virus-containing media was collected from the transfected cell culture and used for infection to increase its titer. Virus-containing media obtained after two rounds of infection was used for large-scale protein expression. For large-scale protein expression 100 cm^2 round tissue culture plates were seeded with 5×10^7 cells/plate and infected with 1 mL of virus-containing media (at an approximately MOI of 5). After 3 days, the cells were scraped off the plate and centrifuged at 500 rpm for 5 minutes. Cell pellets from 10-20, 100 cm^2 plates, were re-suspended in 50 mL of ice-cold lysis buffer (25 mM tris-HCl, pH 7.5, 2 mM EDTA, 1% NP-40, 1 mM DTT, 1 mM P MSF). The cells were stirred on ice for 15 minutes and then centrifuged at 5,000 rpms for 20 minutes.
The centrifuged cell lysate was loaded onto a 2 mL glutathione-sepharose column (Pharmacia) and was washed thrice with 10 mL of 25 mM tris-HCl, pH 7.5, 2 mM EDTA, 1 mM DTT, 200 mM NaCl. The GST-tagged proteins were then eluted by 10 applications (1 mL each) of 25 mM tris-HCl, pH 7.5, 10 mM reduced-glutathione, 100 mM NaCl, 1 mM DTT, 10% glycerol and stored at −70° C.
HDAC assays with purified GST-HDAC protein were carried out in a final volume of 30 μL containing 15 ng of GST-HDAC protein, 20 mM tris-HCl, pH 7.5, 1 mM MnCl2, 10 mM MgCl2, 1 mM DTT, 3 μg/mL poly(Glu,Tyr) 4:1, 1% DMSO, 2.0 μM ATP (γ-[^33P]-ATP 0.1 μCi). The activity was assayed in the presence or absence of inhibitors. The assay was carried out in 96-well plates at ambient temperature for 15 minutes under conditions described below and terminated by the addition of 20 μL of 125 mM EDTA. Subsequently, 40 μL of the reaction mixture were transferred onto EMMOBILON-PVDF membrane (Millipore) previously soaked for 5 minutes with methanol, rinsed with water, then soaked for 5 minutes with 0.5% H3PO4 and mounted on vacuum manifold with disconnected vacuum source. After spotting all samples, a vacuum was connected and each well rinsed with 200 μL 0.5% H3PO4. Membranes were removed and washed four times on a shaker with 1.0% H3PO4, once with ethanol. Membranes were counted after drying at ambient temperature, mounting in Packard TopCount 96-well frame, and addition of 10 μL/well of MICROSCINT™ (Packard). IC50 values were calculated by linear regression analysis of the percentage inhibition of each compound in duplicate, at 4 concentrations (usually 0.01, 0.1, 1 and 10 μM).
• Input: 3×4 μL stopped assay on IMMOBILON membrane, not washed • Background (3 wells): assay with H2O instead of enzyme • Positive control (4 wells): 3% DMSO instead of compound • Bath control (1 well): no reaction mix
IC50 values were calculated by logarithmic regression analysis of the percentage inhibition of each compound at 4 concentrations (usually 3- or 10-fold dilution series starting at 10 μM). In each experiment, the actual inhibition by reference compound was used for normalization of IC50 values to the basis of an average value of the reference inhibitor: Normalized IC50=measured IC50 average ref IC50/measured ref IC50
Example: Reference inhibitor in experiment 0.4 μM, average 0.3 μM, Test compound in experiment 1.0 μM, normalization: 0.3/0.4=0.75 μM
For example, known HDAC inhibitors or a synthetic derivative thereof may be used as reference compounds.

HCT116 = HCT116 IC50; format: cell-based; conditions: Homo sapiens, HCT-116

T1 sequence (Q13547 whole entry, species assumed): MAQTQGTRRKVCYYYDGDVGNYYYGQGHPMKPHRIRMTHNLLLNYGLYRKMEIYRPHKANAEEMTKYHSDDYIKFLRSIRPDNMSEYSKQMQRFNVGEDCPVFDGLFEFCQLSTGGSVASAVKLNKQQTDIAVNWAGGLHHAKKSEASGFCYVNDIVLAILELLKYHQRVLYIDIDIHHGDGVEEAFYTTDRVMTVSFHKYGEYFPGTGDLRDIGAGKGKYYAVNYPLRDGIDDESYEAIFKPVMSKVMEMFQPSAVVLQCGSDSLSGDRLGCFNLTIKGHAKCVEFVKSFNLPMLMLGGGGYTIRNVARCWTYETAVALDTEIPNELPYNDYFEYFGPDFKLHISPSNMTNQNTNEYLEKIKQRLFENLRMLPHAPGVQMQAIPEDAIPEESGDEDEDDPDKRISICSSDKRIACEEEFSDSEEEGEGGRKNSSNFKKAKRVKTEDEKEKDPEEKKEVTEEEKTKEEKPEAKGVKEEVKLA

Row | Structure (SMILES) | IC50 (HDAC-1) [nM] | IC50 (HCT116) [nM]
1 | O=C(/C=C/c1ccc([C@@H]2CCCN2CCn2cccn2)cc1)NO [Compound 63, (E)-N-Hydroxy-3-{4-[(S)-1-(2-pyrazol-1-yl-ethyl)-pyrrolidin-2-yl]-phenyl}-acrylamide] | 42 | 180
2 | Cc1cnn(CCN2CCC[C@H]2c2ccc(/C=C/C(=O)NO)cc2)c1 [Compound 64, (E)-N-Hydroxy-3-(4-{(S)-1-[2-(4-methyl-pyrazol-1-yl)-ethyl]-pyrrolidin-2-yl}-phenyl)-acrylamide] | 62 | 190
3 | O=C(/C=C/c1ccc([C@@H]2CCCN2CCn2cc(Br)cn2)cc1)NO [Compound 65, (E)-3-(4-{(S)-1-[2-(4-Bromo-pyrazol-1-yl)-ethyl]-pyrrolidin-2-yl}-phenyl)-N-hydroxy-acrylamide] | 35 | 180
4 | Cc1cc(C)n(CCN2CCC[C@H]2c2ccc(/C=C/C(=O)NO)cc2)n1 [Compound 66, (E)-3-(4-{(S)-1-[2-(3,5-Dimethyl-pyrazol-1-yl)-ethyl]-pyrrolidin-2-yl}-phenyl)-N-hydroxy-acrylamide] | 28 | 61
5 | Cc1c(CC(C)(C)C)nn(CCN2CCC[C@H]2c2ccc(/C=C/C(=O)NO)cc2)c1O [Compound 68, (E)-3-[4-((S)-1-{2-[3-(2,2-Dimethyl-propyl)-5-hydroxy-4-methyl-pyrazol-1-yl]-ethyl}-pyrrolidin-2-yl)-phenyl]-N-hydroxy-acrylamide] | 40 | 160
6 | Cc1nn(CCN2CCC[C@H]2c2ccc(/C=C/C(=O)NO)cc2)c(C)c1Br [Compound 69, (E)-3-(4-{(S)-1-[2-(4-Bromo-3,5-dimethyl-pyrazol-1-yl)-ethyl]-pyrrolidin-2-yl}-phenyl)-N-hydroxy-acrylamide] | 25 | 170
7 | Cc1nn(CCN2CCC[C@H]2c2ccc(/C=C/C(=O)NO)cc2)cc1Br [Compound 70, (E)-3-(4-{(S)-1-[2-(4-Bromo-3-methyl-pyrazol-1-yl)-ethyl]-pyrrolidin-2-yl}-phenyl)-N-hydroxy-acrylamide] | 30 | 96
8 | Cc1ccn(CCN2CCC[C@H]2c2ccc(/C=C/C(=O)NO)cc2)n1 [Compound 71, (E)-N-Hydroxy-3-(4-{(S)-1-[2-(3-methyl-pyrazol-1-yl)-ethyl]-pyrrolidin-2-yl}-phenyl)-acrylamide] | 55 | 110
9 | Cc1ccnn1CCN1CCC[C@H]1c1ccc(/C=C/C(=O)NO)cc1 [Compound 72, (E)-N-Hydroxy-3-(4-{(S)-1-[2-(5-methyl-pyrazol-1-yl)-ethyl]-pyrrolidin-2-yl}-phenyl)-acrylamide] | 19 | 31
10 | O=C(/C=C/c1ccc([C@@H]2CCCN2CCn2ccc(C(F)(F)F)n2)cc1)NO [Compound 73, (E)-N-Hydroxy-3-(4-{(S)-1-[2-(3-trifluoromethyl-pyrazol-1-yl)-ethyl]-pyrrolidin-2-yl}-phenyl)-acrylamide] | 71 | 230
11 | O=C(/C=C/c1ccc([C@@H]2CCCN2CCc2cn(CCOCc3ccccc3)nn2)cc1)NO [Compound 76, (E)-3-[4-((S)-1-{2-[1-(2-Benzyloxy-ethyl)-1H-[1,2,3]triazol-4-yl]-ethyl}-pyrrolidin-2-yl)-phenyl]N-hydroxy-acrylamide] | 31 | 210
12 | C[Si](C)(C)Cn1cc(CCN2CCC[C@H]2c2ccc(/C=C/C(=O)NO)cc2)nn1 [Compound 77, (E)-N-Hydroxy-3-(4-{(S)-1-[2-(1-trimethylsilanylmethyl-1H-[1,2,3]triazol-4-yl)-ethyl]-pyrrolidin-2-yl}-phenyl)-acrylamide] | 25 | 110
13 | O=C(/C=C/c1ccc([C@@H]2CCCN2CCc2cn(Cc3ccccc3)nn2)cc1)NO [Compound 78, (E)-3-(4-{(S)-1-[2-(1-Benzyl-1H-[1,2,3]triazol-4-yl)-ethyl]-pyrrolidin-2-yl}-phenyl)-N-hydroxy-acrylamide] | 22 | 120
14 | Cn1nnc(CCN2CCC[C@H]2c2ccc(/C=C/C(=O)NO)cc2)n1 [Compound 81, (E)-N-Hydroxy-3-(4-{(S)-1-[2-(2-methyl-2H-tetrazol-5-yl)-ethyl]-pyrrolidin-2-yl}-phenyl)-acrylamide] | 67 | 230
15 | Cc1[nH]c2ccccc2c1CCN1CCN(C(=O)OC(C)(C)C)CC1c1ccc(/C=C/C(=O)NO)cc1 (stereo not drawn) [Compound 87, 3-[4-((E)-2-Hydroxycarbamoyl-vinyl)-phenyl]-4-[2-(2-methyl-1H-indol-3-yl)-ethyl]-piperazine-1-carboxylic acid tert-butyl ester] | 35 | 58
16 | Cc1[nH]c2ccccc2c1CCN1CCN(C)CC1c1ccc(/C=C/C(=O)NO)cc1 (stereo not drawn) [Compound 88, (E)-N-Hydroxy-3-(4-{4-methyl-1-[2-(2-methyl-1H-indol-3-yl)-ethyl]-piperazin-2-yl}-phenyl)-acrylamide] | 9 | 24
17 | Cc1[nH]c2ccccc2c1CCN1CCNCC1c1ccc(/C=C/C(=O)NO)cc1 (stereo not drawn) [Compound 89, (E)-N-Hydroxy-3-(4-{1-[2-(2-methyl-1H-indol-3-yl)-ethyl]-piperazin-2-yl}-phenyl)-acrylamide] | 7 | 200

The remaining compounds from weak to strong by IC50 (HDAC-1), led by results:

Row | IC50 (HDAC-1) [nM] | IC50 (HCT116) [nM] | Structure (SMILES)
18 | 17 | 39 | Cc1nn(CCN2CCC[C@H]2c2ccc(/C=C/C(=O)NO)cc2)c(C)c1C [Compound 67, (E)-N-Hydroxy-3-(4-{1-[2-(3,4,5-trimethyl-pyrazol-1-yl)-ethyl]-pyrrolidin-2-yl}-phenyl)-acrylamide]
19 | 10 | 42 | O=C(/C=C/c1ccc([C@@H]2CCCCCN2CCc2cnn3ccccc23)cc1)NO [Compound 86, (E)-N-Hydroxy-3-{4-[(S)-1-(2-pyrazolo[1,5-a]pyridin-3-yl-ethyl)-azepan-2-yl]-phenyl}-acrylamide]
20 | 7 | 8 | Cc1nn(C(C)(C)C)c(C)c1CCN1CCC[C@H]1c1ccc(/C=C/C(=O)NO)cc1 [Compound 61, (E)-3-(4-{(S)-1-[2-(1-tert-Butyl-3,5-dimethyl-1H-pyrazol-4-yl)-ethyl]-pyrrolidin-2-yl}-phenyl)-N-hydroxy-acrylamide]
21 | 6 | 43 | Nc1ccc(-n2cc(CCN3CCC[C@H]3c3ccc(/C=C/C(=O)NO)cc3)nn2)cc1 [Compound 79, (E)-3-[4-((S)-1-{2-[1-(4-Amino-phenyl)-1H-[1,2,3]triazol-4-yl]-ethyl}-pyrrolidin-2-yl)-phenyl]-N-hydroxy-acrylamide]
22 | 4 | 9 | O=C(/C=C/c1ccc([C@@H]2CCCCN2CCc2cnn3ccccc23)cc1)NO [Compound 85, (E)-N-Hydroxy-3-{4-[(S)-1-(2-pyrazolo[1,5-a]pyridin-3-yl-ethyl)-piperidin-2-yl]-phenyl}-acrylamide]
23 | 2 | 2 | Cc1nn(CC2CC2)c(C)c1CCN1CCC[C@H]1c1ccc(/C=C/C(=O)NO)cc1 [Compound 62, (E)-3-(4-{(S)-1-[2-(1-Cyclopropylmethyl-3,5-dimethyl-1H-pyrazol-4-yl)-ethyl]-pyrrolidin-2-yl}-phenyl)-N-hydroxy-acrylamide]
24 | 1.8 | 4 | Cc1nn(C)c(C)c1CCN1CCC[C@H]1c1ccc(/C=C/C(=O)NO)cc1 [Compound 60, (E)-N-Hydroxy-3-(4-{(S)-1-[2-(1,3,5-trimethyl-1H-pyrazol-4-yl)-ethyl]-pyrrolidin-2-yl}-phenyl)-acrylamide]
